{"source": "patent US5679521A", "about": "“Steroid 5A-reductases” (priority 1995, dated 1997)", "key": {"[1]": {"system": "endogenous Xenopus enzyme (presumably a 17β-hydroxysteroid dehydrogenase)", "assay": "conversion of steroids by endogenous Xenopus oocyte enzymes (control for nonspecific inhibition)", "assay_type": "cell-based, Xenopus laevis", "conditions": "5 μM substrate, 5 μM inhibitor", "description": "Steroid 5α-Reductase Enzyme Assay. Stage 5 and 6 oocytes were surgically removed from female Xenopus laevis (NASCO, Fort Atkinson , Wis.) and collagenase-treated as described by Julius et al., (1988). Oocytes were injected with 50-100 nl of RNA (1 μg/μl) as described by Peacock et al. (Peacock et al., 1988). After injection the oocytes were incubated at 19° C. for 24 hours in modified Barth's saline solution (Peacock et al., 1988) containing 1 mg/ml bovine serum albumin (BSA) to allow expression of the injected RNA. Five to ten viable oocytes were then transferred to 1 ml of modified Barth's saline solution containing 5 μM ^14 C-labeled steroid (50 mCi/mmol, Du Pont-New England Nuclear), and incubated at 37° C. for 2-24 h. […] After the 37° C. incubation, the oocytes were homogenized in the incubation medium and steroid was extracted with 10 ml of dichloromethane. The solvent was evaporated under air and the residue was dissolved in 0.1 ml of chloroform/methanol (2:1, v/v) and subjected to thin-layer chromatography using Siica Gel 60 thin-layer chromatography plates (E. merck, 5748-7, Darmstadt, West Germany). […] The identities of the products were determined by comparison to the Rf values of known standards.\n(§12) The oocytes were then incubated with different radiolabeled steroids for an additional 24 hours and the products formed were analyzed by thin-layer chromatography (TLC)."}, "[2]": {"target": "T1, human steroid 5α-reductase 1 (Homo sapiens, UniProt P18405)", "T1 sequence (P18405 1-259)": "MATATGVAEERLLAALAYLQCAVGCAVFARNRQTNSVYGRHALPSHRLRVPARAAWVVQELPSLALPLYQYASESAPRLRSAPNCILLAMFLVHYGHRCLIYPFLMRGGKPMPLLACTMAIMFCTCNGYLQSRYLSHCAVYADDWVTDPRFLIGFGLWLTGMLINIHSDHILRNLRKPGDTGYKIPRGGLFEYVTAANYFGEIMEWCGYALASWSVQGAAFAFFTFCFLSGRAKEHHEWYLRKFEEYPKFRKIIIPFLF", "assay": "steroid 5α-reductase assay in intact transfected COS cells, human type 1 cDNA", "assay_type": "cell-based", "parameters": "Human 5α-reductase 1 is 259 residues long; expressed in transfected cells; host or cells: simian COS-M6 cells, pCMV4 vector", "conditions": "human steroid 5α-reductase 1 expressed in COS cells; 37° C., 2 hr", "from_the_text": "(§1) Expression Vector Construction. A rat steroid 5α-reductase cDNA corresponding to nucleotides 1-1962 (see Example 1) was ligated into the pCMV4 expression vector (Andersson et al., 1989b). A human cDNA corresponding to nucleotides 1 to 842 of FIG. 7 was initially ligated into pCMV4. […] After amplification, the product was ligated into pCMV4.\n(§2) Expression of Steroid 5α-Reductase 1 cDNAs in COS Cells. Simian COS-M6 cells were transfected as described by Andersson et al. (1989b). The assay of steroid 5α-reductase activity in intact cells was carried out as described in Example 1 except that [^14 C]-labeled steroid dissolved in ethanol were added to the transfected cell medium and subsequent organic extractions were carried out with dichloromethane. TLC and liquid scintillation counting were performed as described in Example 1.\n(§3) COS cells were transiently transfected with expression vectors harboring the rat or human steroid 5α-reductase 1 cDNAs, or with the pCMV4 vector alone.\n(§4) IC50 values for MK-906 and 4-MA inhibition of 5α-reductases expressed in COS cells were also determined. […] See Example 6 and FIG. 15, for further analysis of 4-aza-steroid inhibition."}, "[3]": {"target": "T2, rat steroid 5α-reductase (Rattus norvegicus, UniProt P24008)", "T2 sequence (P24008 5-259)": "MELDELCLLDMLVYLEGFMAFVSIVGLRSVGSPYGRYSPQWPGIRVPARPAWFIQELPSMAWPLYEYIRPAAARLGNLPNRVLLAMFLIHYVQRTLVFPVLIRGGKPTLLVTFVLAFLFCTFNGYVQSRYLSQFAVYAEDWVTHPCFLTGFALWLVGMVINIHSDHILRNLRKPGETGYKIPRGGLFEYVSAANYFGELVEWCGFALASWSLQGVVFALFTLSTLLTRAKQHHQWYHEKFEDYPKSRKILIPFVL", "assay": "steroid 5α-reductase assay in intact transfected COS cells, rat cDNA", "assay_type": "cell-based", "parameters": "the open reading frame would encode a hydrophobic protein of 255 amino acids; expressed in transfected cells; host or cells: simian COS-M6 cells, pCMV4 vector", "conditions": "rat enzyme expressed in COS cells; 37° C., 2 hr", "from_the_text": "as §1, §2, §3, §4"}, "[4]": {"target": "T1, human steroid 5α-reductase 1", "assay": "steroid 5α-reductase activity/inhibition in vitro, homogenates of COS cells expressing human steroid 5α-reductase 1 cDNA (Table III)", "conditions": "human enzyme", "from_the_text": "as §1, §2\n(§5) To assay steroid 5α-reductase activity in vitro, cells were harvested 48 hours after transfection, washed once with phosphate buffered saline and either frozen in liquid N2 or homogenized directly with a Polytron in 10 mM potassium phosphate (pH 7.4), 150 mM KCl and 1 mM EDTA, at a protein concentration of 2 mg/ml. A typical assay contained 10 to 50 μg of cell homogenate protein in 0.5 ml of 0.1M potassium phosphate buffer (pH 6.6, rat enzyme; pH 7.0, human enzyme). Steroids were added in 5 μl ethanol, and the reaction was initiated by the addition of NADPH to a final concentration of 2-5 mM. Incubations were carried out for 10 min at 37° C. and terminated by the addition of 5 ml dichloromethane. Organic execrations and thin-layer chromatography analysis were as described above.\n(§6) The apparent Km and Vmax values in this system were determined in vitro with five different steroid substrates (Table III).\n(§7) The apparent Ki values were then determined for 4-aza-steroid (4-MA and MK-906) inhibition of 5α-reductases expressed in COS cells. […] The data obtained were analyzed using Dixon plots to determine the type of inhibition and the apparent Ki value (Dixon et al., 1979).\n(§8) COS call transfaction, cell homogonate preparation, and enzyme assay were\n(§9) carried out as described in Materials and Methods. Each Km value\n(§10) represents the average of at least two experiments carried out on\n(§11) different days using cell lysates prepared from different transfections."}, "[5]": {"target": "T3, cloned rat steroid 5α-reductase (Rattus norvegicus, UniProt P24008)", "T3 sequence (P24008 5-259)": "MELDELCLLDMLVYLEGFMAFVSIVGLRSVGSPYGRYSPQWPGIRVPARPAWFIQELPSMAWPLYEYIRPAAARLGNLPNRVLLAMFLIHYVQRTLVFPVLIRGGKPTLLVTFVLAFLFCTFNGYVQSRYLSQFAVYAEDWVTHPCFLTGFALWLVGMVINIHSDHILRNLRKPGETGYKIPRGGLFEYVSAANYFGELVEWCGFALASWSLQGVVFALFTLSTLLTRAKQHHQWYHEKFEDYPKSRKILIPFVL", "assay": "substrate specificity / inhibition of cloned rat liver steroid 5α-reductase expressed in Xenopus oocytes", "conditions": "for substrate for the cloned enzyme: 5 μM 14C-labeled steroid", "description": "The various steroids and metabolites are identified on the left and right of the autoradiograms: P, progesterone ; 5αP, 5α-dihydroprogesterone; others are as indicated in the legend to FIG. 2. The amount of 5α-reduced metabolites for each substrate is indicated at the bottom of the figure and was determined by liquid scintillation counting after cutting out appropriate zones from the chromatograms.\nSteroid 5α-Reductase Enzyme Assay. Stage 5 and 6 oocytes were surgically removed from female Xenopus laevis (NASCO, Fort Atkinson , Wis.) and collagenase-treated as described by Julius et al., (1988). Oocytes were injected with 50-100 nl of RNA (1 μg/μl) as described by Peacock et al. (Peacock et al., 1988). After injection the oocytes were incubated at 19° C. for 24 hours in modified Barth's saline solution (Peacock et al., 1988) containing 1 mg/ml bovine serum albumin (BSA) to allow expression of the injected RNA. Five to ten viable oocytes were then transferred to 1 ml of modified Barth's saline solution containing 5 μM ^14 C-labeled steroid (50 mCi/mmol, Du Pont-New England Nuclear), and incubated at 37° C. for 2-24 h. This temperature-jump protocol is based on the observation that expression of mRNA in Xenopus is maximal a 19° C., whereas rat steroid 5α-reductase expressed in Xenopus has a temperature optima of 37° C. After the 37° C. incubation, the oocytes were homogenized in the incubation medium and steroid was extracted with 10 ml of dichloromethane. The solvent was evaporated under air and the residue was dissolved in 0.1 ml of chloroform/methanol (2:1, v/v) and subjected to thin-layer chromatography using Siica Gel 60 thin-layer chromatography plates (E. merck, 5748-7, Darmstadt, West Germany). The chromatoplates were autoradiographed for 18 hours at -70° C. and the radioactive zones were cut out and subjected to liquid scintillation counting in Complete Counting Cocktail (Research Products International). The identities of the products were determined by comparison to the Rf values of known standards.\nas §12"}, "[6]": {"target": "T2, rat steroid 5α-reductase", "assay": "steroid 5α-reductase activity/inhibition in vitro, homogenates of COS cells expressing rat cDNA (Table III)", "conditions": "rat enzyme", "from_the_text": "as §1, §2, §5, §6, §7, §8, §9, §10, §11"}, "[7]": {"system": "steroid 5α-reductase", "conditions": "Liang et al., 1985; cited from earlier work"}, "[8]": {"substrate": "CC(=O)[C@H]1CC[C@H]2[C@@H]3CCC4=CC(=O)CC[C@]4(C)[C@H]3CC[C@]12C", "assay": "cells, lysate or membranes named", "conditions": "0.6 to 20 μM substrate, Lineweaver-Burk, 37.0 °C", "description": "(§13) To assay steroid 5α-reductase activity in vitro, cells were harvested 48 hours after transfection, washed once with phosphate buffered saline and either frozen in liquid N2 or homogenized directly with a Polytron in 10 mM potassium phosphate (pH 7.4), 150 mM KCl and 1 mM EDTA, at a protein concentration of 2 mg/ml. A typical assay contained 10 to 50 μg of cell homogenate protein in 0.5 ml of 0.1M potassium phosphate buffer (pH 6.6, rat enzyme; pH 7.0, human enzyme). Steroids were added in 5 μl ethanol, and the reaction was initiated by the addition of NADPH to a final concentration of 2-5 mM. Incubations were carried out for 10 min at 37° C. and terminated by the addition of 5 ml dichloromethane. Organic execrations and thin-layer chromatography analysis were as described above. The formation of 5α-reduced steroid products was linear with respect to protein over a 10 to 50 μg range and with respect to incubation time over a 1 to 30 minute period."}, "[9]": {"substrate": "C[C@]12CC[C@H]3[C@@H](CCC4=CC(=O)CC[C@@]43C)[C@@H]1CC[C@@H]2O", "assay": "cells, lysate or membranes named", "conditions": "0.6 to 20 μM substrate, Lineweaver-Burk, 37.0 °C"}, "[10]": {"substrate": "C[C@]12CCC(=O)C=C1CC[C@@H]1[C@@H]2CC[C@]2(C)C(=O)CC[C@@H]12", "assay": "cells, lysate or membranes named", "conditions": "0.6 to 20 μM substrate, Lineweaver-Burk, 37.0 °C", "description": "as §13"}, "[11]": {"conditions": "read-out: apparent Ki, two [14C]testosterone concentrations, Dixon plots"}, "[12]": {"conditions": "other: human enzyme in COS cell homogenate"}, "[13]": {"conditions": "other: rat enzyme in COS cell homogenate"}}, "note": "Several values for one entry are separate records, joined by “and”; a condition that tells them apart may be missing. Identical values can stand only once."}
{"molecule": "CCN(CC)C(=O)[C@H]1CC[C@H]2[C@@H]3CC[C@H]4N(C)C(=O)CC[C@]4(C)[C@H]3CC[C@]12C", "note": "[4-MA, 17α-N,N-diethylcarbamoyl-4-methyl-4-aza-5α-androtane-3-one]", "values": [{"measurement": "effect on conversion of dihydrotestosterone into other 5α-reduced metabolites by endogenous Xenopus enzymes", "setting": "[1]", "value": "no effect"}, {"measurement": "effect on conversion of testosterone into androstenedione by endogenous Xenopus enzyme", "setting": "[1]", "value": "not inhibited"}, {"measurement": "IC50 inhibition, relative potency of 4-MA versus MK-906", "setting": "[2]", "value": "approximately ten-fold more potent than MK-906"}, {"measurement": "IC50 inhibition, relative potency of MK-906 and 4-MA", "setting": "[3]", "value": "equipotent"}, {"measurement": "apparent Ki (in words)", "setting": "[4]", "value": "low nanomolar range"}, {"measurement": "type of inhibition", "setting": "[4]; Dixon plots", "value": "competitive"}, {"measurement": "Ki", "setting": "[4]; [11]", "value": "7 nM and 8 nM"}, {"measurement": "effect on reduction of androstenedione", "setting": "[5]; 5 μM substrate, 5 μM inhibitor", "value": "efficiently blocked"}, {"measurement": "effect on reduction of progesterone", "setting": "[5]; 5 μM substrate, 5 μM inhibitor", "value": "efficiently blocked"}, {"measurement": "effect on formation of 5α-reduced products from testosterone", "setting": "[5]; equimolar testosterone and inhibitor (5 μM each)", "value": "substantial decrease"}, {"measurement": "apparent Ki (in words)", "setting": "[6]", "value": "low nanomolar range"}, {"measurement": "type of inhibition", "setting": "[6]; Dixon plots", "value": "competitive"}, {"measurement": "Ki", "setting": "[6]; [11]", "value": "5 nM and 7 nM"}, {"measurement": "type of inhibition", "setting": "[7]", "value": "competitive inhibitors"}]}
{"molecule": "C[C@]12CCC(=O)C=C1CC[C@@H]1[C@@H]2CC[C@]2(C)C(=O)CC[C@@H]12", "note": "[Androstenedione, androstenedione]", "values": [{"measurement": "substrate for the cloned enzyme", "setting": "[5]", "value": "substrates for the cloned enzyme"}]}
{"molecule": "C[C@]12C[C@H](O)[C@H]3[C@@H](CCC4=CC(=O)CC[C@@]43C)[C@@H]1CC[C@@H]2C(=O)CO", "note": "[Corticosterone, corticosterone]", "values": [{"measurement": "activity towards 11β-substituted steroids", "setting": "[4]", "value": "very low activities"}, {"measurement": "activity towards 11β-substituted steroids", "setting": "[6]", "value": "very low activities"}]}
{"molecule": "C[C@]12CCC(=O)C=C1CC[C@@H]1[C@@H]2[C@@H](O)C[C@@]2(C)[C@H]1CC[C@]2(O)C(=O)CO", "note": "[Cortisol, cortisol]", "values": [{"measurement": "activity towards 11β-substituted steroids", "setting": "[4]", "value": "very low activities"}, {"measurement": "activity towards 11β-substituted steroids", "setting": "[6]", "value": "very low activities"}]}
{"molecule": "CC(=O)[C@H]1CC[C@H]2[C@@H]3CCC4=CC(=O)CC[C@]4(C)[C@H]3CC[C@]12C", "note": "[Progesterone, progesterone]", "values": [{"measurement": "substrate for the cloned enzyme", "setting": "[5]", "value": "substrates for the cloned enzyme"}]}
{"molecule": "C[C@]12CC[C@H]3[C@@H](CCC4=CC(=O)CC[C@@]43C)[C@@H]1CC[C@@H]2O", "note": "[Testosterone, testosterone]", "values": [{"measurement": "reduction of the testosterone substrate", "setting": "[5]; intact rat steroid 5α-reductase RNA in oocytes (FIG. 6A)", "value": 67, "unit": "%"}]}
{"molecule": "human steroid 5α-reductase 1 (Homo sapiens) (protein) MATATGVAEERLLAALAYLQCAVGCAVFARNRQTNSVYGRHALPSHRLRVPARAAWVVQELPSLALPLYQYASESAPRLRSAPNCILLAMFLVHYGHRCLIYPFLMRGGKPMPLLACTMAIMFCTCNGYLQSRYLSHCAVYADDWVTDPRFLIGFGLWLTGMLINIHSDHILRNLRKPGDTGYKIPRGGLFEYVTAANYFGEIMEWCGYALASWSVQGAAFAFFTFCFLSGRAKEHHEWYLRKFEEYPKFRKIIIPFLF", "values": [{"measurement": "Km", "setting": "[8]; [12]", "value": 0.8, "unit": "µM"}, {"measurement": "Km", "setting": "[9]; [12]", "value": 3.6, "unit": "µM"}, {"measurement": "Km", "setting": "[10]; [12]", "value": 1.7, "unit": "µM"}]}
{"molecule": "rat steroid 5α-reductase (Rattus norvegicus) (protein) MELDELCLLDMLVYLEGFMAFVSIVGLRSVGSPYGRYSPQWPGIRVPARPAWFIQELPSMAWPLYEYIRPAAARLGNLPNRVLLAMFLIHYVQRTLVFPVLIRGGKPTLLVTFVLAFLFCTFNGYVQSRYLSQFAVYAEDWVTHPCFLTGFALWLVGMVINIHSDHILRNLRKPGETGYKIPRGGLFEYVSAANYFGELVEWCGFALASWSLQGVVFALFTLSTLLTRAKQHHQWYHEKFEDYPKSRKILIPFVL", "values": [{"measurement": "Km", "setting": "[8]; [13]", "value": 0.5, "unit": "µM"}, {"measurement": "Km", "setting": "[9]; [13]", "value": 2.5, "unit": "µM"}, {"measurement": "Km", "setting": "[10]; [13]", "value": 2.8, "unit": "µM"}]}
